Data published in patent US7968508B2, “Benzophenone or benzoic acid anilide derivatives containing carboxyl groups as enzyme stabilizers” (priority 2007, dated 2011).

Target: Bacillus lentus alkaline protease F49 (Lederbergia lenta, UniProt P29599, A188P/L211D/S3T/V193M/V199I)
Assay: Residual protease activity in the presence of an inhibitor
Assay type: biochemical
Settings: compound 10 mM; substrate AAPFpNA; pH 8.6, 25° C.
Protocol: To verify that the compounds listed below have a protease activity-inhibiting effect, the residual proteolytic activity of the Bacillus lentus alkaline protease F49 (according to WO 95/23221 A1) was determined in the presence of these compounds.
The substrate succinyl-alanine-alanine-proline-phenylalanine-para-nitroanilide (AAPFpNA; Bachem L-1400) and 5×10^−9 and/or 1×10^−8 M of the protease were placed in 100 mM Tris buffer. The compounds to be tested as listed in Table 1 were then added in a final concentration of 10 mM. Each was dissolved in anhydrous DMSO, correcting for the effect of DMSO on the enzymatic activity by means of a corresponding reference with the same amount of DMSO but without the respective compound. The batches were incubated for 5 minutes at pH 8.6 and 25° C., where 1 U corresponds to 1 μmol substrate cleaved per minute.

Sequence of Bacillus lentus alkaline protease F49 (P29599 other isoform, or with tags, fused parts or gaps A188P/V193M/V199I/L211D): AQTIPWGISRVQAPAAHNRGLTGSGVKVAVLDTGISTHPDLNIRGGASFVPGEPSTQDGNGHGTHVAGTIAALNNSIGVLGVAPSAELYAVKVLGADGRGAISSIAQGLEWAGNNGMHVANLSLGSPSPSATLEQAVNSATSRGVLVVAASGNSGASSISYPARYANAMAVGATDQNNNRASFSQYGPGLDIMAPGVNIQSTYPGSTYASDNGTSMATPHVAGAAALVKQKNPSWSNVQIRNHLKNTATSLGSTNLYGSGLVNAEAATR

## O=C(O)c1cccc(NC(=O)c2ccccc2C(=O)O)c1 [V1, 2-[[(3-carboxyphenyl)amino]carbonyl]benzoic acid]
  relative strength as protease inhibitor and/or stabilizer (rank order V1, V2, V3, V4, V5): the strongest

## O=C(O)c1ccc(C(=O)c2ccccc2C(=O)O)cc1 [V4, 2-(4-carboxybenzoyl)benzoic acid]
  relative strength as protease inhibitor and/or stabilizer (rank order V1, V2, V3, V4, V5): practically just as good as V3
